Results as given in ChEMBL document CHEMBL1687756 (Antimicrob Agents Chemother, 2010).

What was measured:
Canis familiaris [1] = assay: Toxicity in Beagle dog assessed as inflammatory signs at 20 mg/kg, sc after 3 months; assay type: organism-based, Canis lupus familiaris; design: dose 20 mg/kg, route subcutaneous; conditions: in vivo, 2191.5 h
[2] = Ratio of drug level in spleen to plasma in male Beagle dog at 400 mg/kg, sc after 3 months; assay type: ADME, organism-based, Canis lupus familiaris; design: dose 400 mg/kg, route subcutaneous
[3] = Drug level in Beagle dog spleen at 5 mg/kg, sc after 3 months; assay type: ADME, organism-based, Canis lupus familiaris; design: dose 5 mg/kg, route subcutaneous; conditions: read-out: Drug uptake
[4] = Plasma concentration in male Beagle dog at 200 mg/kg administered intramuscularly after 1 month; assay type: ADME, organism-based, Canis lupus familiaris; design: dose 200 mg/kg, route intramuscular; conditions: im
[5] = Ratio of drug level in spleen to plasma in female Beagle dog at 200 mg/kg administered intramuscularly after 3 months; assay type: ADME, organism-based, Canis lupus familiaris; design: dose 200 mg/kg, route intramuscular; conditions: im
[6] = Drug level in female Beagle dog spleen at 400 mg/kg, sc after 1 month; assay type: ADME, organism-based, Canis lupus familiaris; design: dose 400 mg/kg, route subcutaneous; conditions: read-out: Drug uptake
[7] = Drug level in Beagle dog lymph node popliteal at 5 mg/kg administered intramuscularly after 1 month; assay type: ADME, organism-based, Canis lupus familiaris; design: dose 5 mg/kg, route intramuscular; conditions: im, read-out: Drug uptake
[8] = Ratio of drug level in spleen to plasma in male Beagle dog at 400 mg/kg administered intramuscularly after 1 month; assay type: ADME, organism-based, Canis lupus familiaris; design: dose 400 mg/kg, route intramuscular; conditions: im
[9] = Plasma concentration in Beagle dog at 5 mg/kg, sc after 6 months; assay type: ADME, organism-based, Canis lupus familiaris; design: dose 5 mg/kg, route subcutaneous
[10] = AUC (0 to last) in Beagle dog at 5 mg/kg administered intramuscularly after 176 days; assay type: ADME, organism-based, Canis lupus familiaris; design: dose 5 mg/kg, route intramuscular, time 0 - last; conditions: plasma, im
[11] = Ratio of drug level in lymph node popliteal to plasma in Beagle dog at 5 mg/kg administered intramuscularly after 1 month; assay type: ADME, organism-based, Canis lupus familiaris; design: dose 5 mg/kg, route intramuscular; conditions: im
Plasma = assay: (§1) Plasma concentration in Beagle dog at 5 mg/kg administered intramuscularly after 6 months; assay type: ADME, organism-based, Canis lupus familiaris; design: dose 5 mg/kg, route intramuscular; conditions: in vivo, im, 4383 h, BLD = below limit of detection
[12] = as §1; assay type: ADME, organism-based, Canis lupus familiaris; design: dose 5 mg/kg, route intramuscular; conditions: im
[13] = Plasma concentration in male Beagle dog at 200 mg/kg, sc after 1 month; assay type: ADME, organism-based, Canis lupus familiaris; design: dose 200 mg/kg, route subcutaneous
[14] = Drug level in male Beagle dog thymus at 400 mg/kg administered intramuscularly after 3 months; assay type: ADME, organism-based, Canis lupus familiaris; design: dose 400 mg/kg, route intramuscular; conditions: im, read-out: Drug uptake
[15] = Drug level in Beagle dog muscle at non-injected site at 5 mg/kg, sc after 6 months; assay type: ADME, organism-based, Canis lupus familiaris, Muscle tissue; design: dose 5 mg/kg, route subcutaneous; conditions: read-out: Drug uptake
[16] = Drug level in female Beagle dog thymus at 200 mg/kg administered intramuscularly after 3 months; assay type: ADME, organism-based, Canis lupus familiaris; design: dose 200 mg/kg, route intramuscular; conditions: im, read-out: Drug uptake
[17] = Ratio of drug level in thymus to plasma in female Beagle dog at 200 mg/kg administered intramuscularly after 3 months; assay type: ADME, organism-based, Canis lupus familiaris; design: dose 200 mg/kg, route intramuscular; conditions: im
[18] = Plasma concentration in male Beagle dog at 200 mg/kg, sc after 3 months; assay type: ADME, organism-based, Canis lupus familiaris; design: dose 200 mg/kg, route subcutaneous
[19] = Plasma concentration in female Beagle dog at 200 mg/kg, sc after 1 month; assay type: ADME, organism-based, Canis lupus familiaris; design: dose 200 mg/kg, route subcutaneous; conditions: read-out: Drug uptake
Canis familiaris [20] = assay: Toxicity in Beagle dog assessed as white deposits at 20 mg/kg, sc after 3 months; assay type: organism-based, Canis lupus familiaris; design: dose 20 mg/kg, route subcutaneous; conditions: in vivo, 2191.5 h
[21] = Drug level in male Beagle dog thymus at 400 mg/kg, sc after 1 month; assay type: ADME, organism-based, Canis lupus familiaris; design: dose 400 mg/kg, route subcutaneous; conditions: read-out: Drug uptake
[22] = Tmax in female dog at 200 mg administered intramuscularly after 85 days; conditions: in vivo, im
[23] = Plasma concentration in male Beagle dog at 400 mg/kg administered intramuscularly after 3 months; assay type: ADME, organism-based, Canis lupus familiaris; design: dose 400 mg/kg, route intramuscular; conditions: im
Canis familiaris [24] = assay: Tmax in Beagle dog at 5 mg/kg, sc after 184 days; assay type: ADME, organism-based, Canis lupus familiaris; design: dose 5 mg/kg, route subcutaneous; conditions: in vivo, 4416 h
Canis familiaris [25] = assay: Toxicity in Beagle dog assessed as irritation at 20 mg/kg administered intramuscularly after 3 months; assay type: organism-based, Canis lupus familiaris; design: dose 20 mg/kg, route intramuscular; conditions: in vivo, im, 2191.5 h
[26] = Drug level in Beagle dog skin at injected site at 5 mg/kg, sc after 3 months; assay type: ADME, organism-based, Canis lupus familiaris, Zone of skin; design: dose 5 mg/kg, route subcutaneous; conditions: read-out: Drug uptake
[27] = Ratio of drug level in spleen to plasma in female Beagle dog at 400 mg/kg, sc after 3 months; assay type: ADME, organism-based, Canis lupus familiaris; design: dose 400 mg/kg, route subcutaneous
[28] = AUC (0 to last) in Beagle dog at 5 mg/kg, sc after 176 days; assay type: ADME, organism-based, Canis lupus familiaris; design: time 0 - last, dose 5 mg/kg, route subcutaneous; conditions: plasma
[29] = Drug level in Beagle dog muscle at injected site at 5 mg/kg administered intramuscularly after 6 months; assay type: ADME, organism-based, Canis lupus familiaris, Muscle tissue; design: dose 5 mg/kg, route intramuscular; conditions: im, read-out: Drug uptake
[30] = Drug level in Beagle dog thymus at 5 mg/kg, sc after 6 months; assay type: ADME, organism-based, Canis lupus familiaris; design: dose 5 mg/kg, route subcutaneous; conditions: read-out: Drug uptake
[31] = Drug level in Beagle dog lymph node axillar at 5 mg/kg administered intramuscularly after 3 months; assay type: ADME, organism-based, Canis lupus familiaris; design: dose 5 mg/kg, route intramuscular; conditions: axillary lymph node, im, read-out: Drug uptake

With Cc1cc(/C=C/C#N)cc(C)c1Nc1ccnc(Nc2ccc(C#N)cc2)n1 [RILPIVIRINE] the Activity (Canis familiaris [1]) was “Non-toxic”, the Kp at 2191.5 h [2] was 2.3 and the concentration at 2191.5 h [3] was 9.7 ng/g. The concentration at 730.5 h [4] was 74.5 ng/mL, the Kp at 2191.5 h [5] was 2.2 and the concentration at 730.5 h [6] was 285 ng/g. The concentration at 730.5 h [7] was 6500 ng/g, the Kp at 730.5 h [8] was 2.2 and the concentration at 4383 h [9] was 1.3 ng/mL. The AUC(0-t) at 4224 h [10] was 23200 ng·h/mL, the Kp at 730.5 h [11] was 574 and the Cp (Plasma) was “BLD”. For the same compound, the concentration at 4383 h [12] was under 1 ng/mL, the concentration at 730.5 h [13] was 95 ng/mL and the concentration at 2191.5 h [14] was 76 ng/g. For the same compound, the concentration at 4383 h [15] was under 5 ng/g, the concentration at 2191.5 h [16] was 27.4 ng/g and the Kp at 2191.5 h [17] was 2.8. For the same compound, the concentration at 2191.5 h [18] was 15.2 ng/mL, the concentration at 730.5 h [19] was 71.8 ng/g and the Activity (Canis familiaris [20]) was “Non-toxic”. The concentration at 730.5 h [21] was 606 ng/g, the Tmax [22] was 33 min and the concentration at 2191.5 h [23] was 22.1 ng/mL. The Tmax (Canis familiaris [24]) was 144 h, the Activity (Canis familiaris [25]) was “Non-toxic” and the concentration at 2191.5 h [26] was 223000 ng/g. For the same compound, the Kp at 2191.5 h [27] was 1.9, the AUC(0-t) at 4224 h [28] was 19700 ng·h/mL and the concentration at 4383 h [29] was 11500 ng/g. The concentration at 4383 h [30] was 20.2 ng/g and the concentration at 2191.5 h [31] was 25.5 ng/g.
